Test results taken from PubChem BioAssay AID2060485 (Molecular Pharmacology Branch, DTP, NCI, 2025).

Test system: A375 multi-cell spheroids with HUVEC/MSC, viability
Assay: Anticancer human tumor A375 cell line growth inhibition [GQUAD];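 further: spheroids exposed to compounds for seven days before readout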
Details: for IC50: curve of first compound; for viability, T/C: stronger effect = lower value
Outline: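 Tumor cells were grown as complex spheroids with HUVEC endothelial cells and mesenchymal stem cells as stroma. G-quadruplex stabilizers were combined with targeted agents over half-log dilutions from near the clinical Cmax, or from 10 microM.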

[1] = second compound 0.0316 µM, first compound 0.0316 µM
[2] = second compound 0.0316 µM, first compound 0.1 µM
[3] = second compound 0.0316 µM, first compound 0.316 µM
[4] = second compound 0.0316 µM, first compound 1 µM
[5] = second compound 0.0316 µM, first compound 3.16 µM
[6] = second compound 0.0316 µM, first compound 10 µM
[7] = second compound 0.1 µM, first compound 0.0316 µM
[8] = second compound 0.1 µM, first compound 0.1 µM
[9] = second compound 0.1 µM, first compound 0.316 µM
[10] = second compound 0.1 µM, first compound 1 µM
[11] = second compound 0.1 µM, first compound 3.16 µM
[12] = second compound 0.1 µM, first compound 10 µM
[13] = second compound 0.316 µM, first compound 0.0316 µM
[14] = second compound 0.316 µM, first compound 0.1 µM
[15] = second compound 0.316 µM, first compound 0.316 µM
[16] = second compound 0.316 µM, first compound 1 µM
[17] = second compound 0.316 µM, first compound 3.16 µM
[18] = second compound 0.316 µM, first compound 10 µM
[19] = second compound 1 µM, first compound 0.0316 µM
[20] = second compound 1 µM, first compound 0.1 µM
[21] = second compound 1 µM, first compound 0.316 µM
[22] = second compound 1 µM, first compound 1 µM
[23] = second compound 1 µM, first compound 3.16 µM
[24] = second compound 1 µM, first compound 10 µM
[25] = second compound 3.16 µM, first compound 0.0316 µM
[26] = second compound 3.16 µM, first compound 0.1 µM
[27] = second compound 3.16 µM, first compound 0.316 µM
[28] = second compound 3.16 µM, first compound 1 µM
[29] = second compound 3.16 µM, first compound 3.16 µM
[30] = second compound 3.16 µM, first compound 10 µM
[31] = second compound 10 µM, first compound 0.0316 µM
[32] = second compound 10 µM, first compound 0.1 µM
[33] = second compound 10 µM, first compound 0.316 µM
[34] = second compound 10 µM, first compound 1 µM
[35] = second compound 10 µM, first compound 3.16 µM
[36] = second compound 10 µM, first compound 10 µM
[37] = second compound 0.0316 µM, first compound 0.000999 µM
[38] = second compound 0.0316 µM, first compound 0.00316 µM
[39] = second compound 0.0316 µM, first compound 0.00999 µM
[40] = second compound 0.0316 µM, first compound 0.0999 µM
[41] = second compound 0.1 µM, first compound 0.000999 µM
[42] = second compound 0.1 µM, first compound 0.00316 µM
[43] = second compound 0.1 µM, first compound 0.00999 µM
[44] = second compound 0.1 µM, first compound 0.0999 µM
[45] = second compound 0.316 µM, first compound 0.000999 µM
[46] = second compound 0.316 µM, first compound 0.00316 µM
[47] = second compound 0.316 µM, first compound 0.00999 µM
[48] = second compound 0.316 µM, first compound 0.0999 µM
[49] = second compound 1 µM, first compound 0.000999 µM
[50] = second compound 1 µM, first compound 0.00316 µM
[51] = second compound 1 µM, first compound 0.00999 µM
[52] = second compound 1 µM, first compound 0.0999 µM
[53] = second compound 3.16 µM, first compound 0.000999 µM
[54] = second compound 3.16 µM, first compound 0.00316 µM
[55] = second compound 3.16 µM, first compound 0.00999 µM
[56] = second compound 3.16 µM, first compound 0.0999 µM
[57] = second compound 10 µM, first compound 0.000999 µM
[58] = second compound 10 µM, first compound 0.00316 µM
[59] = second compound 10 µM, first compound 0.00999 µM
[60] = second compound 10 µM, first compound 0.0999 µM

Molecule CC1COCCN1c1cc(C2(O)CC3CCC(C2)O3)c2cnn(-c3ccn[nH]3)c2n1 (stereo not drawn) + Cc1[nH]c2ccc(F)cc2c1-c1nc2c3cccnc3c3ncccc3c2[nH]1 has an IC50 (second compound 0.0316 µM) of 339 nM, an IC50 (second compound 0.1 µM) of 352 nM and an IC50 (second compound 0.316 µM) of 282 nM. For the same molecule, the IC50 (second compound 1 µM) was 210 nM, the IC50 (second compound 3.16 µM) was < 31.6 nM and the IC50 (second compound 10 µM) was < 31.6 nM. For the same molecule, the viability, T/C [1] was 114%, the viability, T/C [2] was 103% and the viability, T/C [3] was 51.9%. For the same molecule, the viability, T/C [4] was 16.9%, the viability, T/C [5] was 12.2% and the viability, T/C [6] was 8.69%. The viability, T/C [7] was 113%, the viability, T/C [8] was 94.9% and the viability, T/C [9] was 54%. For the same molecule, the viability, T/C [10] was 18%, the viability, T/C [11] was 13.2% and the viability, T/C [12] was 7.58%. For the same molecule, the viability, T/C [13] was 122%, the viability, T/C [14] was 85% and the viability, T/C [15] was 47.8%. For the same molecule, the viability, T/C [16] was 19.7%, the viability, T/C [17] was 13.3% and the viability, T/C [18] was 9.21%. For the same molecule, the viability, T/C [19] was 79.1%, the viability, T/C [20] was 67.4% and the viability, T/C [21] was 40.7%. It also gave a viability, T/C [22] of 16.6%, a viability, T/C [23] of 13.3% and a viability, T/C [24] of 8.26%. It also gave a viability, T/C [25] of 31.5%, a viability, T/C [26] of 17.9% and a viability, T/C [27] of 13.5%. The viability, T/C [28] was 11.2%, the viability, T/C [29] was 6.29% and the viability, T/C [30] was 1.15%. For the same molecule, the viability, T/C [31] was 39%, the viability, T/C [32] was 18.9% and the viability, T/C [33] was 18.6%. It also gave a viability, T/C [34] of 9.83%, a viability, T/C [35] of 11.4% and a viability, T/C [36] of 3.18%.
For CCc1c2c(nc3ccc(O)cc13)-c1cc3c(c(=O)n1C2)COC(=O)[C@]3(O)CC + Cc1[nH]c2ccc(F)cc2c1-c1nc2c3cccnc3c3ncccc3c2[nH]1, the IC50 (second compound 0.0316 µM) was < 0.999 nM, the IC50 (second compound 0.1 µM) was < 0.999 nM and the IC50 (second compound 0.316 µM) was < 0.999 nM. The IC50 (second compound 1 µM) was < 0.999 nM, the IC50 (second compound 3.16 µM) was < 0.999 nM and the IC50 (second compound 10 µM) was < 0.999 nM. The viability, T/C [37] was 46%, the viability, T/C [38] was 20% and the viability, T/C [39] was 16.8%. It also gave a viability, T/C [1] of 19.7%, a viability, T/C [40] of 4.81% and a viability, T/C [3] of 0.52%. The viability, T/C [41] was 50.3%, the viability, T/C [42] was 20.4% and the viability, T/C [43] was 14.7%. For the same molecule, the viability, T/C [7] was 16.9%, the viability, T/C [44] was 5.44% and the viability, T/C [9] was 0.54%. For the same molecule, the viability, T/C [45] was 47.8%, the viability, T/C [46] was 18.3% and the viability, T/C [47] was 15.2%. The viability, T/C [13] was 19.5%, the viability, T/C [48] was 5.75% and the viability, T/C [15] was 0.54%. It also gave a viability, T/C [49] of 41.1%, a viability, T/C [50] of 20.4% and a viability, T/C [51] of 18.4%. The viability, T/C [19] was 16.4%, the viability, T/C [52] was 5.26% and the viability, T/C [21] was 0.53%. It also gave a viability, T/C [53] of 32%, a viability, T/C [54] of 20.9% and a viability, T/C [55] of 17.6%. The viability, T/C [25] was 11%, the viability, T/C [56] was 0.47% and the viability, T/C [27] was 0.17%. It also gave a viability, T/C [57] of 39.4%, a viability, T/C [58] of 17.6% and a viability, T/C [59] of 17.1%. It also gave a viability, T/C [31] of 14.1%, a viability, T/C [60] of 1.7% and a viability, T/C [33] of 0.25%.
For Cc1cccc(N(C)C(=O)C2C(O)CCN2c2nc(C)cc(C(F)(F)F)c2C#N)c1 (stereo not drawn) + Cc1cnc(CNC(=O)c2c(=O)c3ccc(N4CCCN(C)CC4)nc3n3c2sc2ccccc23)cn1, the IC50 (second compound 0.0316 µM) was > 10000 nM, the IC50 (second compound 0.1 µM) was > 10000 nM and the IC50 (second compound 0.316 µM) was > 10000 nM. For the same molecule, the IC50 (second compound 1 µM) was < 31.6 nM, the IC50 (second compound 3.16 µM) was < 31.6 nM and the IC50 (second compound 10 µM) was < 31.6 nM. It also gave a viability, T/C [1] of 104%, a viability, T/C [2] of 89.9% and a viability, T/C [3] of 104%. For the same molecule, the viability, T/C [4] was 107%, the viability, T/C [5] was 99.3% and the viability, T/C [6] was 122%. For the same molecule, the viability, T/C [7] was 75.8%, the viability, T/C [8] was 69.7% and the viability, T/C [9] was 77.2%. The viability, T/C [10] was 76%, the viability, T/C [11] was 78.8% and the viability, T/C [12] was 71.8%. The viability, T/C [13] was 55.6%, the viability, T/C [14] was 52% and the viability, T/C [15] was 50.4%. The viability, T/C [16] was 52.2%, the viability, T/C [17] was 63.3% and the viability, T/C [18] was 60.9%. For the same molecule, the viability, T/C [19] was 42.9%, the viability, T/C [20] was 41.6% and the viability, T/C [21] was 42.8%. For the same molecule, the viability, T/C [22] was 41.8%, the viability, T/C [23] was 49.2% and the viability, T/C [24] was 38.4%. It also gave a viability, T/C [25] of 30.5%, a viability, T/C [26] of 31.4% and a viability, T/C [27] of 41%. The viability, T/C [28] was 31.8%, the viability, T/C [29] was 35.6% and the viability, T/C [30] was 38.4%. The viability, T/C [31] was 31.8%, the viability, T/C [32] was 29.8% and the viability, T/C [33] was 33.9%. It also gave a viability, T/C [34] of 33.1%, a viability, T/C [35] of 35.4% and a viability, T/C [36] of 32.1%.
Cc1[nH]c2ccccc2c1CCNCc1ccc(/C=C/C(=O)NO)cc1 + Cc1cnc(CNC(=O)c2c(=O)c3ccc(N4CCCN(C)CC4)nc3n3c2sc2ccccc23)cn1 was tested, and the IC50 (second compound 0.0316 µM) was 112 nM, the IC50 (second compound 0.1 µM) was 48.8 nM and the IC50 (second compound 0.316 µM) was 35.9 nM. For the same molecule, the IC50 (second compound 1 µM) was < 0.999 nM, the IC50 (second compound 3.16 µM) was < 0.999 nM and the IC50 (second compound 10 µM) was < 0.999 nM. The viability, T/C [37] was 98.2%, the viability, T/C [38] was 103% and the viability, T/C [39] was 123%. It also gave a viability, T/C [1] of 113%, a viability, T/C [40] of 54.4% and a viability, T/C [3] of 10.3%. For the same molecule, the viability, T/C [41] was 74.6%, the viability, T/C [42] was 69.7% and the viability, T/C [43] was 74%. The viability, T/C [7] was 60.5%, the viability, T/C [44] was 31.7% and the viability, T/C [9] was 8.85%. The viability, T/C [45] was 54.1%, the viability, T/C [46] was 55.5% and the viability, T/C [47] was 49%. For the same molecule, the viability, T/C [13] was 53.9%, the viability, T/C [48] was 25.2% and the viability, T/C [15] was 8.14%. For the same molecule, the viability, T/C [49] was 37.2%, the viability, T/C [50] was 42.2% and the viability, T/C [51] was 39.4%. For the same molecule, the viability, T/C [19] was 35.4%, the viability, T/C [52] was 18.7% and the viability, T/C [21] was 1.63%. It also gave a viability, T/C [53] of 35.6%, a viability, T/C [54] of 30.9% and a viability, T/C [55] of 35.5%. It also gave a viability, T/C [25] of 34.1%, a viability, T/C [56] of 13.6% and a viability, T/C [27] of 0.08%. The viability, T/C [57] was 30.9%, the viability, T/C [58] was 25.6% and the viability, T/C [59] was 29.1%. The viability, T/C [31] was 25%, the viability, T/C [60] was 8.95% and the viability, T/C [33] was 0.14%.
